From PMC9851200, “Multiparameter phenotypic screening for endogenous TFEB and TFE3 translocation identifies novel chemical series modulating lysosome function” (Autophagy, 2022)

Experiments:
Format in all cases: binding
[1] = biological target: T1, kinases (KINOMEscan panel) (Homo sapiens, UniProt O14936); conditions: kinase CASK; NEW KINOMEscan
T1 sequence (O14936 1-926): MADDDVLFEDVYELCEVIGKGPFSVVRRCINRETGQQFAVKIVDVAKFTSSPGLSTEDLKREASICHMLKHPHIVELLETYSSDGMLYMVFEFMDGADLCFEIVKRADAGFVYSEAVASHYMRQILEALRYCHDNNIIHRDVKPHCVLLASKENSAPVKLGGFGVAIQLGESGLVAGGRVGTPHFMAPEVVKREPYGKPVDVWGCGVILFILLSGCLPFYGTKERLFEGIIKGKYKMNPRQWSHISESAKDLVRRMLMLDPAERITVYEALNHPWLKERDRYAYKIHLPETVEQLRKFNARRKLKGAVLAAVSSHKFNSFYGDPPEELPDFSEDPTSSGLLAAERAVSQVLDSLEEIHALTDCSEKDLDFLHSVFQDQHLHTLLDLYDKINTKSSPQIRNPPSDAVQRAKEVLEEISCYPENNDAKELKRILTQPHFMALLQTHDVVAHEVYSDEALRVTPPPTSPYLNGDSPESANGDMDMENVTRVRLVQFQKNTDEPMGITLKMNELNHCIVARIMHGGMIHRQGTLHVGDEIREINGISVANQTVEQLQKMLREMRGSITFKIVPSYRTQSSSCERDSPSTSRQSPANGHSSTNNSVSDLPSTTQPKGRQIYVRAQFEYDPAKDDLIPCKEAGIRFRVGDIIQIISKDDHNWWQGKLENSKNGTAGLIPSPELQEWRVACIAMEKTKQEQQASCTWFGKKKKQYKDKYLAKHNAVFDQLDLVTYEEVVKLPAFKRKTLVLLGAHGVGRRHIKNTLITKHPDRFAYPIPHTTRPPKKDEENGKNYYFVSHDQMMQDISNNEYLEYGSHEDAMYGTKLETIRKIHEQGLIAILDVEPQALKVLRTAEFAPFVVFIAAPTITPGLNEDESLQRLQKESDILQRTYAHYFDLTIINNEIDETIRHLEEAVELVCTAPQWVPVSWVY

[2] = biological target: T2, kinases (KINOMEscan panel) (Homo sapiens, UniProt O15197); conditions: kinase EPHB6; NEW KINOMEscan
T2 sequence (O15197 32-1021): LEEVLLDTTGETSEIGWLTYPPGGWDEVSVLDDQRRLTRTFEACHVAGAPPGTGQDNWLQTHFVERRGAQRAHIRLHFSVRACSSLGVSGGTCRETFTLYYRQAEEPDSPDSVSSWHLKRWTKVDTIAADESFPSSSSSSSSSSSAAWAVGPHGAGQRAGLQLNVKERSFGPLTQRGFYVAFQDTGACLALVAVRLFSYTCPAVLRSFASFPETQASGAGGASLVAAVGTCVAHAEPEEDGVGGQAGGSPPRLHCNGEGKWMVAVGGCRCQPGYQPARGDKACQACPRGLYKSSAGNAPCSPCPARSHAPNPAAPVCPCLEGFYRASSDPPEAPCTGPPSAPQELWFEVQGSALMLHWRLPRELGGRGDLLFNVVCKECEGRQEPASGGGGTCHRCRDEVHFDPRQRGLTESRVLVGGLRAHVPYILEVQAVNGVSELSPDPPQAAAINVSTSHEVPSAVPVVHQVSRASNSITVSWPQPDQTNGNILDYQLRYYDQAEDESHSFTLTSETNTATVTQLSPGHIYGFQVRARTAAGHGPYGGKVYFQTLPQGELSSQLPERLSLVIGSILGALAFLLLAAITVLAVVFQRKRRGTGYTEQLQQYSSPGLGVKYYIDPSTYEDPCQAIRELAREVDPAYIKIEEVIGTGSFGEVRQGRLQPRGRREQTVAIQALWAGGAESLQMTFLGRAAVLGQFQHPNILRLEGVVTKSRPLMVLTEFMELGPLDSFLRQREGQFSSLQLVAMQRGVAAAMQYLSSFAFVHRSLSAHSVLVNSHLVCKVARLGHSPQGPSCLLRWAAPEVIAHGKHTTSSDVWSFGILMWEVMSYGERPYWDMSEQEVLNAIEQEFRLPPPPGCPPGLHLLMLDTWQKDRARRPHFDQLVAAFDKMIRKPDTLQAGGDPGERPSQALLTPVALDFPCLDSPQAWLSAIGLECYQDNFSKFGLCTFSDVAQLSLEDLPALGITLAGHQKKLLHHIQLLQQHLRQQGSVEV

[3] = biological target: kinases (KINOMEscan panel) (Homo sapiens, UniProt P00519, H396P); conditions: NEW KINOMEscan
[4] = biological target: kinases (KINOMEscan panel) (Homo sapiens, UniProt P24723); conditions: kinase PRKCH; NEW KINOMEscan
Sequence of kinases (KINOMEscan panel) (Homo sapiens, UniProt P24723) (P24723 whole entry): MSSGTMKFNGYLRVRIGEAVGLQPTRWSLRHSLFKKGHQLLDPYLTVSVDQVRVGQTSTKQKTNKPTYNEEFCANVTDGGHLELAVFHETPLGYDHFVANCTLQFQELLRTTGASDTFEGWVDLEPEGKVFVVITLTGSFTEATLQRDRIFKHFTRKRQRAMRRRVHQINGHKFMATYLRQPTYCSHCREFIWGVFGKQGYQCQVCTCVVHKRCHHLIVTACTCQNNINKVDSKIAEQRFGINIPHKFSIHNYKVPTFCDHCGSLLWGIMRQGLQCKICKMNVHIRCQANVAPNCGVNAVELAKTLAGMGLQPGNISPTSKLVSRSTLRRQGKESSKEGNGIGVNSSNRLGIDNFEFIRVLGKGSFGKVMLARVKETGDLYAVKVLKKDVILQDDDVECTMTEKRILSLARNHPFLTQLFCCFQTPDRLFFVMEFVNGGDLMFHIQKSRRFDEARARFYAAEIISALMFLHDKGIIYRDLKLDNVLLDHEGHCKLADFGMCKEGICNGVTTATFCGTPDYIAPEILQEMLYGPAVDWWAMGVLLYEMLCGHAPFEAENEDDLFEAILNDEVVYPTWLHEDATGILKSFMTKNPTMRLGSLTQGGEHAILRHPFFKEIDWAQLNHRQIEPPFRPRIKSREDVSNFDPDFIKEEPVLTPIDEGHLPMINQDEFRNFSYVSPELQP

[5] = biological target: kinases (KINOMEscan panel) (Homo sapiens, UniProt P53667); conditions: kinase LIMK1; NEW KINOMEscan
Sequence of kinases (KINOMEscan panel) (Homo sapiens, UniProt P53667) (P53667 whole entry): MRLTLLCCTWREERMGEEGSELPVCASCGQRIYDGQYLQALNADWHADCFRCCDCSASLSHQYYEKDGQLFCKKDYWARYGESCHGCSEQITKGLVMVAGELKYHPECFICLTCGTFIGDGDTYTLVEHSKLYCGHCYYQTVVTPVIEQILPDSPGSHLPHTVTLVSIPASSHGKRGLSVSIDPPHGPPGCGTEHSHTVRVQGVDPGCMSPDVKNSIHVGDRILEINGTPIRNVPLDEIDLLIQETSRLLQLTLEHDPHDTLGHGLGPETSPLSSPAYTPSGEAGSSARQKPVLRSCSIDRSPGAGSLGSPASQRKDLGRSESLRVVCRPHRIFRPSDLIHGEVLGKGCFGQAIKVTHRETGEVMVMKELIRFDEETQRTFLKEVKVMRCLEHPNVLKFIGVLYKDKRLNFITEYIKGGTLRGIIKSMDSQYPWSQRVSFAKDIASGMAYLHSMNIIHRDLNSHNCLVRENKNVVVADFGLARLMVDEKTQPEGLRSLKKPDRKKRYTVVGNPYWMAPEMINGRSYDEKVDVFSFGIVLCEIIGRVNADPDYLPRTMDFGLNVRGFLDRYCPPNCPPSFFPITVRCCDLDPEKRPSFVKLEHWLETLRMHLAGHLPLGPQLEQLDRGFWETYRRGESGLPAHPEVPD

[6] = biological target: kinases (KINOMEscan panel) (Homo sapiens, UniProt Q13627); conditions: NEW KINOMEscan
[7] = biological target: kinases (KINOMEscan panel) (Homo sapiens, UniProt Q14004)
Sequence of kinases (KINOMEscan panel) (Homo sapiens, UniProt Q14004) (Q14004 whole entry): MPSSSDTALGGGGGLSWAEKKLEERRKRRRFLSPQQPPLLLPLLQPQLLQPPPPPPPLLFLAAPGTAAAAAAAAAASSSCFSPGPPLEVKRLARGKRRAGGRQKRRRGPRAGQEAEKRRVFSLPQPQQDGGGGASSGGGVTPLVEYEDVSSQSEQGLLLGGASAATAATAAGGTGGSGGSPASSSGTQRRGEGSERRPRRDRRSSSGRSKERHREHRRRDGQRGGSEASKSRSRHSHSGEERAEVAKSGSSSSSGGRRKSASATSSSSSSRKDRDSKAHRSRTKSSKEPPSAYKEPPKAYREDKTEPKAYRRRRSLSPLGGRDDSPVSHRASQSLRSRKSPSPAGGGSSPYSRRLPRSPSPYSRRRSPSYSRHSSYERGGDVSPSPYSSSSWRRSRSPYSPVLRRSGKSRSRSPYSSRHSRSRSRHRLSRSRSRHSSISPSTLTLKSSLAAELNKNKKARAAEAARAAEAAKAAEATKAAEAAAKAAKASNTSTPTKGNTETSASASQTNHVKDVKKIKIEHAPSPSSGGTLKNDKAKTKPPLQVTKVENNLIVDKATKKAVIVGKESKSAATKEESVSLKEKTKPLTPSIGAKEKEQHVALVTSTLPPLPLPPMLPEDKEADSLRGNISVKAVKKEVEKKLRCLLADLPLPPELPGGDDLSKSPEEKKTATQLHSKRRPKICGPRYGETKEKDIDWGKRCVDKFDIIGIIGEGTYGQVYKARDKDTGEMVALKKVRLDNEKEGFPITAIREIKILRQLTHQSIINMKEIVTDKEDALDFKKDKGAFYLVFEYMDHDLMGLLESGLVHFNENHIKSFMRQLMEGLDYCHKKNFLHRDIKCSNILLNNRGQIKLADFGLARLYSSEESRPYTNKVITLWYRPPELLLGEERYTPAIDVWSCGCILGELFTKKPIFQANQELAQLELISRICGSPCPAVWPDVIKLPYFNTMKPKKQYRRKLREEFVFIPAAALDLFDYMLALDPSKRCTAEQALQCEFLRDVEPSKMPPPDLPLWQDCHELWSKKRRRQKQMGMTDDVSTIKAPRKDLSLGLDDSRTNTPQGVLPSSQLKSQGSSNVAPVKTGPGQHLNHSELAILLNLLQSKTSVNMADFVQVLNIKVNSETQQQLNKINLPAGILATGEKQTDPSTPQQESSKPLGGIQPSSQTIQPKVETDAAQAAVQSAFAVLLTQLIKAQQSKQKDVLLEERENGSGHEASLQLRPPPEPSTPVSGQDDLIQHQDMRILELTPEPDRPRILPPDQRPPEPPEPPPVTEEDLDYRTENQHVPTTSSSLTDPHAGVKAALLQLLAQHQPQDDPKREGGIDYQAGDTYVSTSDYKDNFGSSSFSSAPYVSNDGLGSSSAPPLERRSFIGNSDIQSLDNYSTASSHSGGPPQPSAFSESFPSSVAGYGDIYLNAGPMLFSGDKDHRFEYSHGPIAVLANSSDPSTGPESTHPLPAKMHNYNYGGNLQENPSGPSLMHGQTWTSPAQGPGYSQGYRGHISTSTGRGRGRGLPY

[8] = biological target: T3, kinases (KINOMEscan panel) (Homo sapiens, UniProt Q99759); conditions: MAP3K3; NEW KINOMEscan
T3 sequence (Q99759 1-626): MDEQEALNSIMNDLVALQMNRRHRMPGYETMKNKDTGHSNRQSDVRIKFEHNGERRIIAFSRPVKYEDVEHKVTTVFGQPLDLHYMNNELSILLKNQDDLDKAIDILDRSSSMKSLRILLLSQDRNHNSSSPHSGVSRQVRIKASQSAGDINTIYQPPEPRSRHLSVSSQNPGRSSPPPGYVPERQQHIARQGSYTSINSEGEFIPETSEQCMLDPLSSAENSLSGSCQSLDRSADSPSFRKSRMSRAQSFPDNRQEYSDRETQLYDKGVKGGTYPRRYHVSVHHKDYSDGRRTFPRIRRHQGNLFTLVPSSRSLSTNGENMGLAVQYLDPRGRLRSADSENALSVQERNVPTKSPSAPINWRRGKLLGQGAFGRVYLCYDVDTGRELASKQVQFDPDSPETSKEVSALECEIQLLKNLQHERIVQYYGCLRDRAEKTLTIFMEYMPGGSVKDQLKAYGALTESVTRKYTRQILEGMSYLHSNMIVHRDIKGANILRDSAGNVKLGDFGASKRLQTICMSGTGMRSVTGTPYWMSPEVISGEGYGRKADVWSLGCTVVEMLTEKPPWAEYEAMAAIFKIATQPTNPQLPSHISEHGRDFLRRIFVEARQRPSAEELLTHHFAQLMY

SMILES	KINOMEscan CASK [1]	KINOMEscan EPHB6 [2]	KINOMEscan ABL1(H396P)-nonphosphorylated [3]	KINOMEscan ABL1(H396P)-phosphorylated [3]	KINOMEscan PRKCH [4]	KINOMEscan LIMK1 [5]	KINOMEscan DYRK1A [6]	KINOMEscan CDK13 [7]	KINOMEscan MAP3K3 [8]
Cc1cccc(-c2nc(Nc3ccc4nn(C)cc4c3)c3ccccc3n2)n1 [NK167]	0	0	4	0	21	0	0	8	0
Cc1cccc(-c2nc(N(C)c3ccc4ncsc4c3)c3ccccc3n2)n1 [NK-161]	0	0	0	0	8	0	20	6	0
